This is an account of results in paper PMC7687371, “Quantitative in Vitro to in Vivo Extrapolation (QIVIVE) for Predicting Reduced Anogenital Distance Produced by Anti-Androgenic Pesticides in a Rodent Model for Male Reproductive Disorders” (Environmental Health Perspectives, 2020).

The nature of data set [1]: PBK model first-order kinetic parameters fitted to in vivo ADME data. On the set-up: species or system rat. The settings on record: PBK model parameter; for Metabolism rate in liver, Total (L/h) KMetab: metabolic clearance.
The subject of data set [2] is pregnant dams and pups. As to conditions: ref EFSA's Draft Assessment Reports (DARs); cited from earlier work.
The nature of data set [3]: Fetal chemical exposure analysis (LC-QTOF) at GD21. Type of data set: in vivo, rat. In outline:
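Rat dams killed at GD21; pooled fetal trunk plasma (by sex, per litter, ~90 min post-dose) and amniotic fluid stored at −80 °C. Samples extracted with acetonitrile (C-18 cleanup) and analysed by positive-ESI LC-QTOF; quantified from (M+H)+ extracted-ion chromatograms ±0.005 Da against matrix-matched plasma standards.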

Details of data set [4]: method as in U.S. EPA 2012. As to conditions: EPI Suite, experimental preferred over modeled; ref U.S. EPA 2012; cited from earlier work.
The test system of data set [5] is NCI-H295R cells. Description: H295R steroidogenesis assay. The class given is cell-based, human. The settings on record: for Effect on androgen (steroid) synthesis, in words: H295R steroidogenesis assay; for IC50 / IC20: Homo sapiens; for IC50: 48 h; for IC20: read-out: Testosterone inhibition (IC20 µM). In a few lines: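 Human adrenocortical NCI-H295R cells exposed 48 h to compounds in 2-fold dilutions from 0.8 to 50 μM (0.1% DMSO), three independent experiments. Ten steroid hormones in medium measured by LC-MS/MS and normalized to solvent controls; viability checked by MTT.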

For data set [6] the following is noted: cited from earlier work.
The mark [7] stands for this setting: NCI-H295R, read-out: Testosterone inhibition (IC50, μM).

Where two headings read alike, the source gives them in different places. Marks after values point to notes of the source that are not given here.

A word on the IC50: it is the concentration needed to halve the response being measured. One may read the IC20 as the concentration at which the effect reaches the 20% level. In the case of `N#Cc1c[nH]cc1-c1cccc2c1OC(F)(F)O2` [Fludioxonil, fludioxonil], in data set [1], the “Fecal excretion rate from gut (L/h) KFeces” value (from here on “Fecal excretion rate from gut”) was determined as 3 L/h; the “Portal GI absorption rate into liver (L/h) KAS” value was 1 L/h; the “Urine excretion rate from kidney (L/h) KUrine” value (“Urine excretion rate” below) was found to be 0.01 L/h; the “Metabolism rate in liver, Total (L/h) KMetab” value turned out to be 0.3 L/h. Also, in data set [2], the Critical toxicity entry was “Reduced maternal and pup BW”; the “LOAEL (mg/kg bw)” value is recorded as 212 mg/kg bw; the “NOAEL (mg/kg bw)” value is recorded as 21 mg/kg bw. The “Measured concentration in male fetuses” value in data set [3] (fetal plasma GD21, dams dosed 60 mg/kg BW per day (Study 3)) came out at 3.3 µM. Also, the “log Kow” value in data set [4] is 4.12. Moreover, the “Effect on androgen (steroid) synthesis, in words” value (from here on “Effect on androgen”) in data set [5] is recorded as “inhibited testosterone synthesis”. The IC50 in data set [5] (NCI-H295R cells, NA = not active up to 50μM, read-out: Testosterone inhibition (IC50)) worked out at 10.8 µM. In data set [5] (NCI-H295R cells), the IC20 was 1300 nM. Further, in data set [5] (multiple contrast tests), the “Androstendione, LOEC” value is on record as 25 µM; the “Corticosterone, LOEC” value was 12.5 µM; the “Estradiol, LOEC” value was 3.1 µM; the “OH-Progesterone, LOEC” value was determined as 3.1 µM. Besides, the “Testosterone, lowest observed effect concentration (LOEC)” value in data set [5] (multiple contrast tests) stood at 1.6 µM. The “Unbound plasma fraction (%)” value in data set [6] (ref Wetmore et al. (2012)) was 0.5^g %.
For `COc1ccc(C(=CC(=O)N2CCOCC2)c2ccc(Cl)cc2)cc1OC` [Dimethomorph, dimethomorph], in data set [1], the “Fecal excretion rate from gut” value is 2 L/h; the “Portal GI absorption rate into liver (L/h) KAS” value amounted to 1 L/h; the “Urine excretion rate” value worked out at 0.01 L/h; the “Metabolism rate in liver, Total (L/h) KMetab” value is recorded as 0.3 L/h. In addition, in data set [2], the Critical toxicity entry was “Reduced maternal and pup body weight, reduced gestation length”; the “LOAEL (mg/kg bw)” value is reported as 67 mg/kg bw; the “NOAEL (mg/kg bw)” value is recorded as 20 mg/kg bw. Besides, the “Measured concentration in male fetuses” value in data set [3] (fetal plasma GD21, dams dosed 20 mg/kg BW per day (Study 3)) was found to be 1.35 µM. Moreover, in data set [4], the “log Kow” value is given as 2.68. Also, in data set [5] (0.8 µM), the “Androstenedione (relative to controls), mean” value was 0.83 and the “Testosterone (relative to controls), mean” value is 0.88. Further, in data set [5] (1.6 µM), the “Androstenedione (relative to controls), mean” value is recorded as 0.81 and the “Testosterone (relative to controls), mean” value is 0.84. In data set [5] (3.1 µM), the “Androstenedione (relative to controls), mean” value came out at 0.80 and the “Testosterone (relative to controls), mean” value was found to be 0.76. Moreover, in data set [5] (6.3 µM), the “Androstenedione (relative to controls), mean” value was 0.89 and the “Testosterone (relative to controls), mean” value is given as 0.74. For the same molecule, in data set [5] (12.5 µM), the “Androstenedione (relative to controls), mean” value is given as 0.77 and the “Testosterone (relative to controls), mean” value was 0.68. Also, in data set [5] (25 µM), the “Androstenedione (relative to controls), mean” value came out at 0.70 and the “Testosterone (relative to controls), mean” value was found to be 0.73. Also, in data set [5] (50 µM), the “Androstenedione (relative to controls), mean” value came out at 0.67 and the “Testosterone (relative to controls), mean” value was 0.67. For the same molecule, the “Effect on androgen” value in data set [5] is “inhibited testosterone synthesis”. The half-maximal inhibitory concentration (IC50) in data set [5] (setting [7]) is above 50 µM. Besides, the IC20 in data set [5] (NCI-H295R) came out at 2800 nM. Further, in data set [5] (multiple contrast tests), the “Corticosterone, LOEC” value is 0.8 µM; the “DHEA, LOEC” value is listed as 25 µM; the “Estradiol, LOEC” value is recorded as 0.8 µM; the “OH-Progesterone, LOEC” value worked out at 12.5 µM. For the same molecule, the “Unbound plasma fraction (%)” value in data set [6] (plasma) is 9.4^g %.
On to `CC12CC1(C)C(=O)N(c1cc(Cl)cc(Cl)c1)C2=O` (stereo not shown) [Procymidone, procymidone, reference compound], for which, in data set [1], the “Fecal excretion rate from gut” value is reported as 0.04 L/h and the “Urine excretion rate” value was found to be 0.08 L/h. In addition, the “Measured concentration in male fetuses” value in data set [3] (male, Sprague-Dawley, rat, in vivo, 40 mg/kg/day) worked out at 7.8 µM. Moreover, the “log Kow” value in data set [4] was 3.08. Moreover, the “Effect on androgen” value in data set [5] was “inhibited the synthesis of androgens”. In addition, in data set [5] (setting [7]), the concentration for half-maximal inhibition (IC50) worked out at 6 µM.
